Data from patent US8124129B2, “Crystalline form of the compound A-348441” (Karo Bio AB, priority 2005, dated 2012).

How the values were obtained:
Type in all cases: physicochemical
[1] = Stability study under accelerated conditions: impurity profile / overall purity by HPLC; details: for overall purity (HPLC) after storage: 2 months; for overall purity (HPLC), initial: before storage
Procedure: (§1) Impurity profile, moisture content and crystalline form were measured on the samples, and then again approximately 3 months later for Sample 1, and 2 months later for Samples 2 and 3.
The impurity profile was measured by HPLC.

[2] = Stability study under accelerated conditions: moisture content by Karl Fischer analysis
Procedure: (§2) Three samples of Compound I were packaged separately in double polyethylene bags in a small cardboard box, which were stored in a stability chamber under accelerated conditions (40° C./75% […] Humidity). Sample 1 was 10 g of crystalline Form 1; Sample 2 was 2 g of amorphous product prepared as described in Example 1B above; and Sample 3 was 2 g of crystalline Form 2 made as described in Example 1A above.
as §1
Karl Fischer analysis was used to measure moisture content.

[3] = Stability study under accelerated conditions: crystalline form by differential scanning calorimetry; details: 3 months, 40° C./75% Residual Humidity
Procedure: as §2, §1

[4] = Solubility (general statement)
[5] = 40° C./75% Residual Humidity, double polyethylene bags
[6] = compared with crystalline form of Example 1S of WO 2004/000869 and amorphous form, general statement

CC#C[C@]1(O)CC[C@H]2[C@@H]3CCC4=CC(=O)CCC4=C3[C@@H](c3ccc(N(C)CCO[C@H]4CC[C@@]5(C)[C@@H](C4)C[C@@H](O)[C@@H]4[C@@H]5C[C@H](O)[C@]5(C)[C@@H]([C@H](C)CCC(=O)O)CC[C@@H]45)cc3)C[C@@]21C [Sample 2, (3β,5β,7α,12α)-7,12-dihydroxy-3-{2-[{4-[17β-hydroxy-3-oxo-17α-prop-1-ynylestra-4,9-dien-11β-yl]phenyl}(methyl)amino]ethoxy}cholan-24-oic acid]
overall purity (HPLC) after storage [1, 5]: 96.7%
overall purity (HPLC), initial [1]: 97.3%
water content (Karl Fischer) after storage ([2]; 2 months, 40° C./75% Residual Humidity): 5%
moisture content, initial ([2]; before storage): anhydrous

CC#C[C@]1(O)CC[C@H]2[C@@H]3CCC4=CC(=O)CCC4=C3[C@@H](c3ccc(N(C)CCO[C@H]4CC[C@@]5(C)[C@@H](C4)C[C@@H](O)[C@@H]4[C@@H]5C[C@H](O)[C@]5(C)[C@@H]([C@H](C)CCC(=O)O)CC[C@@H]45)cc3)C[C@@]21C [Sample 3, (3β,5β,7α,12α)-7,12-dihydroxy-3-{2-[{4-[17β-hydroxy-3-oxo-17α-prop-1-ynylestra-4,9-dien-11β-yl]phenyl}(methyl)amino]ethoxy}cholan-24-oic acid]
overall purity (HPLC) after storage [1, 5]: 90.7%
overall purity (HPLC), initial [1]: 93.2%
water uptake (Karl Fischer) after storage ([2]; 2 months, 40° C./75% Residual Humidity, relative to Samples 1 and 2): intermediate behaviour

CC#C[C@]1(O)CC[C@H]2[C@@H]3CCC4=CC(=O)CCC4=C3[C@@H](c3ccc(N(C)CCO[C@H]4CC[C@@]5(C)[C@@H](C4)C[C@@H](O)[C@@H]4[C@@H]5C[C@H](O)[C@]5(C)[C@@H]([C@H](C)CCC(=O)O)CC[C@@H]45)cc3)C[C@@]21C [Sample 1, (3β,5β,7α,12α)-7,12-dihydroxy-3-{2-[{4-[17β-hydroxy-3-oxo-17α-prop-1-ynylestra-4,9-dien-11β-yl]phenyl}(methyl)amino]ethoxy}cholan-24-oic acid]
change of overall purity (HPLC) after storage ([1]; 3 months, 40° C./75% Residual Humidity, double polyethylene bags): did not change
stability under accelerated conditions, overall conclusion ([1]; compared with Compound I in other forms): more stable
stability [1, 6]: improved stability
water uptake (Karl Fischer) after storage ([2]; 3 months, 40° C./75% Residual Humidity): little water uptake
hygroscopicity [2, 6]: lower hygroscopicity
change in crystalline form (DSC thermograms) [3]: no change in crystalline form
solubility [4]: low solubility
